Literature values in patent publication US7498130B2, “Method of reducing viral load” (Massachusetts General Hospital, priority 2003, dated 2009).

Tests used:
HIV = conditions: infected cells
[1] = in vivo

Substance: antithrombin III [ATIII]
- lowering HIV viral loads (HIV): inactive
- overall elimination half-life [1]: 18.6 h
